Data reported in paper PMC6161601 (Journal of Enzyme Inhibition and Medicinal Chemistry, 2018).
Where “and” joins values, the source holds several entries; their conditions need not be identical. Equal values may be shown once. Entries after “also recorded” stand apart in the source; their conditions may differ. Read-outs that look alike come from different tables or passages of the source.

Columns and labels:
[1] = biological target: T1, human erythrocyte acetylcholinesterase (AChE) (Homo sapiens, UniProt P22303); assay: biochemical
T1 construct: from tissue; host or cells: haemolysed erythrocytes of healthy human donors
Description: (§1) Blood samples were obtained from healthy donors from the Voievodal Specialized Hospital in Łódź, Poland (Wojewódzki Specjalistyczny Szpital im. Dr W. Biegańskiego w Łodzi). The blood was collected into vacuum tubes containing sodium citrate. Erythrocytes were separated from plasma by centrifugation (3000 × g, 10 min, 20 °C) with a Micro 22 R centrifuge (Hettich ZENTRIFUGEN, Tuttlingen, Germany) and washed three times with 0.9% saline. Afterwards, red cells were haemolysed by freezing and stored at a temperature of –30 °C; before each experiment, they were restored at 37° C for 15 min and used to determine AChE activity. […] The studies on the biological material were approved by the Bioethics Committee of the Medical University of Lodz (RNN/27/18/KE).
(§2) The activity of both cholinesterases (AChE and BuChE) were conducted using a spectrophotometric method developed by Ellman with previously described modifications[25]^,[30]. […] 400-fold diluted solution of haemolysed erythrocytes or diluted plasma (200 times) was incubated for 15 min (37° C) with DTNB and tested compound at an appropriate concentration, and the reaction was started by addition of substrate (ATC or BTC). The final volume of a sample was 500 µL.
(§3) AChE Selectivity Index (SI) was calculated with the aid of the following formula: SI = IC50 of BChE/IC50 of AChE. In turn BuChE SI was defined as IC50 of AChE/IC50 of BChE. Linear regression (Hanes–Woolf plots) were used to estimate the maximal velocity (Vmax) and the Michaelis constant (Km).

[2] = biological target: T2, human plasma butyrylcholinesterase (BuChE) (Homo sapiens, UniProt P06276); assay: biochemical
T2 construct: Plasma for determination of BuChE activity was obtained by centrifuging the blood; from tissue; host or cells: plasma of healthy human donors
Description: as §1, §2, §3

[3] = biological target: T1, human erythrocyte acetylcholinesterase (AChE); assay: Kinetic parameters and type of AChE inhibition (Hanes–Woolf); format: biochemical; settings: for Vmax(i) AChE: mean ± SD
Description: (§4) The absorbance was recorded at λ = 436 nm using a CECIL 2021 spectrophotometer (CECIL Instruments Limited, Cambridge, UK) with a thermostatic water flow (temperature 37° C).
as §3
(§5) To establish the type of inhibition, additional experiments were conducted with various concentrations of substrates (ATC, BTC), and the kinetic parameters of the enzymatic reactions were obtained using Hanes–Woolf equation, which is a graphical representation of enzyme kinetics in which the ratio of the initial substrate concentration [S] to the reaction velocity v is plotted against [S]. […]

[4] = biological target: T2, human plasma butyrylcholinesterase (BuChE); assay: Kinetic parameters and type of BuChE inhibition (Hanes–Woolf); format: biochemical; settings: for Vmax(i) BuChE: mean ± SD
Description: as §4, §3, §5

BuChE = biological target: T3, BuChE (Homo sapiens, UniProt P06276); assay: BuChE inhibition with excess of substrate (BTC); format: biochemical; settings: for inhibition at 375 µM: compound at 375 µmol/L
T3 construct: Plasma for determination of BuChE activity was obtained by centrifuging the blood; from tissue; host or cells: plasma of healthy human donors

Aβ42 peptide = biological target: T4, Aβ42 peptide (Homo sapiens, UniProt P05067); assay: Beta-amyloid (Aβ 1–42) aggregation, SensoLyte ThT kit; format: biochemical
T4 construct: Beta-amyloid (Aβ 1–42) aggregation studies were conducted using SensoLyte ThT Aβ42 Aggregation kit; purchased AnaSpec, Inc, Fremont, CA
Description: Beta-amyloid (Aβ 1–42) aggregation studies were conducted using SensoLyte ThT Aβ42 Aggregation kit (AnaSpec, Inc, Fremont, CA). Aβ42 peptide was dissolved in cold (4 °C) assay buffer and left to hydrate for a few minutes. The solution was spined at 10,000 rpm for 5 min at 4 °C to centrifuge out any precipitated material. […] The final volume of the test samples was 100 µL. Simultaneously, the positive control and negative control containing morin at the final concentration of 100 µmol/L were established. […] The measurements of fluorescence intensity expressed as relative fluorescence units (RFU) were taken for 90 min with 5 min intervals. The fluorescence intensity measured for positive control equals 100% of Aβ aggregation and was used for estimation of inhibition properties of tested biguanides.
Statistical analysis of data obtained in Aβ aggregation assay was conducted with a commercially available package (GraphPad Prism 5, La Jolla, CA). The results were expressed as the mean ± standard deviation (SD) of measurements conducted in triplicates or quadruplicates. One or two-way ANOVA and subsequent post hoc tests were used for intergroup comparisons. The results were considered significant at p values lower than 0.05.

[5] = Intracellular uptake in in vitro cellular model (unpublished data); format: in vitro ADME; settings: depending on the cell line
[6] = tested on: human umbilical vein endothelial cells (HUVECs); assay: HUVEC viability and integrity, real-time electrical impedance system (unpublished data); format: cell-based
Description: At lower concentrations of substrate, BuChE activity is related to Michaelis–Menten kinetics and its enzymatic activity is based on the formation of an enzyme–substrate complex [ES]. At higher substrate levels (> 1 mM) BuChE presents greater activity related to the formation of a substrate-activated complex [SES][33]. […] This fact is of vital importance when studying BuChE inhibitors as in vivo the concentration of ACh in the synaptic cleft is estimated to be about 5 mM^33, which imply that substrate activated form of BuChE is present in the synaptic cleft.

AChE = biological target: T5, AChE (Homo sapiens, UniProt P22303); format: biochemical
T5 construct: 400-fold diluted solution of haemolysed erythrocytes or diluted plasma (200 times) was incubated; from tissue; host or cells: haemolysed erythrocytes of healthy human donors

erythrocytes = settings: 6–1500 μmol/L; cited from earlier work
[7] = biological target: T2, human plasma butyrylcholinesterase (BuChE); settings: published previously; cited from earlier work

T1 sequence (P22303 other isoform, or with tags, fused parts or gaps): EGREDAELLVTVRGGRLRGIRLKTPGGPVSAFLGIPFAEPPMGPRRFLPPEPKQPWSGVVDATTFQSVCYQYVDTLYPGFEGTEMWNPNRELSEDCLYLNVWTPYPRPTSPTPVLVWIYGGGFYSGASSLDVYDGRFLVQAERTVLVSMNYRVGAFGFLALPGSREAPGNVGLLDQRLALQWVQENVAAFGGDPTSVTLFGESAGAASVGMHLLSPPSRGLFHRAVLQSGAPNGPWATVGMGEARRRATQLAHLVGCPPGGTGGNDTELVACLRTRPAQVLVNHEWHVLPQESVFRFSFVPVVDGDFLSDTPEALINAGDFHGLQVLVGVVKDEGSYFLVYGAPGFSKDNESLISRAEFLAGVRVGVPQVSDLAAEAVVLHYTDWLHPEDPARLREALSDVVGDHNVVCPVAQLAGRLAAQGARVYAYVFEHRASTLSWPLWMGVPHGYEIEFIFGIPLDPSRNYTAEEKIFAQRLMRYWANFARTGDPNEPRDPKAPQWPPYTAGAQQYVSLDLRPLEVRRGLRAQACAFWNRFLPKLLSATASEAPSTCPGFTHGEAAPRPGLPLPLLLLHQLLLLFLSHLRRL
T4 sequence (P05067 672-713): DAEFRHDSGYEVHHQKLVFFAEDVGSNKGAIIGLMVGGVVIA
T2 sequence (P06276 29-602): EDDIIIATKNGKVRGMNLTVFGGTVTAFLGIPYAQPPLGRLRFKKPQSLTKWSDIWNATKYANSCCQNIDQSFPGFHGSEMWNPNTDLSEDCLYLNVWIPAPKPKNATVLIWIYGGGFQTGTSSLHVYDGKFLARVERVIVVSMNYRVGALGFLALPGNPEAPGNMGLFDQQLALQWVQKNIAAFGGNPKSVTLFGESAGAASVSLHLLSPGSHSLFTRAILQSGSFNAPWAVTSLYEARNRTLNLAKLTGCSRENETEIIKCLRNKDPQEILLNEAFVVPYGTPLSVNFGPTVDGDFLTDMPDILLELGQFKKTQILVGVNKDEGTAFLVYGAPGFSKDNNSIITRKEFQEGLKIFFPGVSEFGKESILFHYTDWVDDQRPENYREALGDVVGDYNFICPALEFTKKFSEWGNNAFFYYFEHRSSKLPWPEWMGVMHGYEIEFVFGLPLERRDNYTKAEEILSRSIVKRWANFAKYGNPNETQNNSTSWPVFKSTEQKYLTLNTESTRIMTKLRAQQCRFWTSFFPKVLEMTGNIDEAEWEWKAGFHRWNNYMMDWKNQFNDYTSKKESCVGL
T3 sequence (P06276 29-602): as above
T5 sequence (P22303 other isoform, or with tags, fused parts or gaps): as the sequence (P22303 other isoform, or with tags, fused parts or gaps) above

For `CN(C)C(=N)N=C(N)NS(=O)(=O)c1ccc(C(F)(F)F)cc1[N+](=O)[O-]` [Compound 5], the “SI AChE” value ([1]; IC50 BChE/IC50 AChE) was 3.23, the inhibition at 150 µM ([1]; compound at 150.0 µmol/L) was 35 ± 7.18% and the IC50 ([1]; human erythrocyte AChE, mean ± SD of three independent experiments) was 212 ± 48.3 µM. For the same molecule, the “SI BuChE” value ([2]; IC50(AChE)/IC50(BChE)) was 0.31, the IC50 ([2]; human plasma BuChE, mean ± SD of three independent experiments) was 686 ± 86.4 µM and the “I: type of inhibition, AChE” value [3] was “M (M: mixed type)”. The “type of AChE inhibition” value [3] was “mixed-type; also recorded: mixed inhibition; also recorded: mixed way”, the “vmax AChE, mean ± SD” value ([3]; B: inhibitor at 1/3 of IC50) was 175.32 ± 33.25 mA/min and the “Vmax(i) AChE” value ([3]; B: inhibitor at 1/3 of IC50) was 0.175 ± 0.033 A/min. The “vmax AChE, mean ± SD” value ([3]; C: inhibitor at IC50) was 146.12 ± 40.50 mA/min, the “Vmax(i) AChE” value ([3]; C: inhibitor at IC50) was 0.146 ± 0.040 A/min and the “vmax AChE, individual experiments B1–B3” value ([3]; inhibitor at 1/3 of IC50) was 183.000 mA/min and 204.073 mA/min and 138.914 mA/min. The “vmax AChE, individual experiments C1–C3” value ([3]; inhibitor at IC50) was 173.750 mA/min and 165.000 mA/min and 99.631 mA/min, the “I: type of inhibition, BuChE” value [4] was “M (M: mixed type)” and the “type of BuChE inhibition” value [4] was “mixed inhibition; also recorded: mixed manner; also recorded: Mixed type”. For the same molecule, the “vmax BuChE, mean ± SD” value ([4]; B: inhibitor at 1/3 of IC50) was 242.44 ± 12.47 mA/min, the “Vmax(i) BuChE” value ([4]; B: inhibitor at 1/3 of IC50) was 0.242 ± 0.012 A/min and the “vmax BuChE, mean ± SD” value ([4]; C: inhibitor at IC50) was 202.78 ± 2.42 mA/min. For the same molecule, the “Vmax(i) BuChE” value ([4]; C: inhibitor at IC50) was 0.202 ± 0.002 A/min, the “vmax BuChE, individual experiments B1–B3” value ([4]; inhibitor at 1/3 of IC50) was 243.730 mA/min and 229.384 mA/min and 254.233 mA/min and the “vmax BuChE, individual experiments C1–C3” value ([4]; inhibitor at IC50) was 204.771 mA/min and 200.088 mA/min and 203.508 mA/min. For the same molecule, the “BuChE inhibition, maximal” value (BuChE; BTC 2.5 μmol/mL, various compound concentrations (Figure 8B)) was “up to 31.89 ± 6.22%”, the inhibition at 375 µM (BuChE; BTC 0.75 mmol/L) was 27.5 ± 8.61% and the inhibition at 375 µM (BuChE; BTC 2.5 mmol/L) was at most 15.6%. The “activity vs morin 100 µmol/L” value (Aβ42 peptide; 100 µmol/L, two-way ANOVA) was “significantly lower in comparison with morin”, the “inhibitory property vs morin 100 µmol/L” value (Aβ42 peptide; 200 µmol/L, two-way ANOVA, p > 0.05) was “comparable with those of morin” and the inhibition at 200 µM (Aβ42 peptide; 200 µmol/L, vs control) was about 20%. For the same molecule, the “Aβ aggregation decreased up to” value (Aβ42 peptide; 100 and 200 µmol/L, after 60 min of reaction initiation) was about 80%, the “intracellular uptake relative to metformin” value [5] was 70–80 fold and the “decrease in HUVEC adhesion and viability” value ([6]; 300 μmol/L, 12–72 h of incubation) was about 20%. For the same molecule, the “effect on HUVEC viability” value ([6]; 6–100 μmol/L) was “did not affect cell viability”, the “type of AChE inhibition” value (AChE; at 1/2 IC50 for AChE) was “mixed-type” and the “Vmax AChE” value (AChE; each at 1/2 IC50 for AChE: metformin 1175, donepezil 0.0125, compound 5 106.0 µmol/L, alone or in mixture) was 0.206 ± 0.008 A/min. The “erythrocytes membrane disintegration” value (erythrocytes) was “does not contribute to the erythrocytes membrane disintegration”.

In the case of `[H]/N=C(/N)N/C(=N/[H])NCCc1ccccc1` [Phenformin, phenformin, reference compound], the inhibition at 150 µM ([2]; at 150 µmol/L) is given as 44.7 ± 1.23% and the IC50 [7] is given as 259 ± 31 µM.
